# Read-outs that look alike come from different tables or passages of the source.
# What was measured:
# Ctenocephalides felis [1] = assay: Ctenocephalides felis in-vitro contact test, adult cat flea; assay type: in vivo; conditions: 5 μg/cm^2 (=500 g/ha), after 48 hours
# Procedure: Ctenocephalides felis—in-vitro contact tests adult cat flea
# 9 mg compound is solved in 1 ml acetone and diluted with acetone to the desired concentration. 250 μl of the test solution is filled in 25ml glass test tubes and homogeneously distributed on the inner walls by rotation and tilting on a shaking device (2 h at 30 rpm). With a compound concentration of 900 ppm, an inner surface of 44,7 cm^2 and a homogeneous distribution, a dose of 5 μg/cm^2 is achieved.
# After the solvent has evaporated, each test tube is filled with 5-10 adult cat fleas (Ctenocephalides felis), closed with a perforated lid and incubated in a lying position at room temperature and relative humidity. After 48 hours efficacy is determined. The fleas are patted on the ground of the tubes and are incubated on a heating plate at 45-50° C. for at most 5 minutes Immotile or uncoordinated moving fleas, which are not able to escape the heat by climbing upwards, are marked as dead or moribund.
# An efficacy of 100% means all fleas are dead or moribund; 0% means no fleas are dead or moribund.
# Ctenocephalides felis [2] = assay: Ctenocephalides felis oral test (CTECFE); assay type: in vivo; conditions: 48 h, 100 ppm in cattle blood, adult unfed cat fleas, after 2 days
# Procedure: Ctenocephalides felis—oral test (CTECFE)
# (§1) Solvent: dimethyl sulfoxide
# To produce a suitable preparation of active compound, 10 mg of active compound are dissolved in 0.5 ml solvent, and the concentrate is diluted with cattle blood to the desired concentration.
# Approximately 20 adult unfed cat fleas (Ctenocephalides felis) are placed in flea chambers. The blood chamber, sealed with parafilm on the bottom, are filled with cattle blood supplied with compound solution and placed on the gauze covered top of the flea chamber, so that the fleas are able to suck the blood. The blood chamber is heated to 37° C. whereas the flea chamber is kept at room temperature.
# After 2 days mortality in % is determined. 100% means all the fleas have been killed; 0% means none of the fleas have been killed.
# Lucilia cuprina = Lucilia cuprina test (LUCICU); assay type: in vivo; conditions: 48 h
# Procedure: Lucilia cuprina—test (LUCICU)
# as §1
# 10 mg active compound are dissolved in 0,5 ml Dimethylsulfoxid. Serial dilutions are made to obtain the desired rates.
# Approximately 20 1st instar larvae of the Australian sheep blowfly (Lucilia cuprina) are transferred into a test tube containing minced horse meat and compound solution of the desired concentration.
# After 2 days mortality in % is determined. 100% means all the larvae have been killed; 0% means none of the larvae have been killed.
# Musca domestica = Musca domestica test (MUSCDO); assay type: in vivo; conditions: 48 h
# Procedure: Musca domestica—test (MUSCDO)
# as §1
# To produce a suitable preparation of active compound, 10 mg of active compound are dissolved in 0.5 ml solvent, and the concentrate is diluted with water to the desired concentration.
# 10 adult house flies (Musca domestica) are transferred into a container, containing a sponge soaked with a mixture of sugar solution and compound solution of the desired concentration.
# After 2 days mortality in % is determined. 100% means all the flies have been killed; 0% means none of the flies have been killed.
# Diabrotica balteata = Diabrotica balteata spray test; assay type: in vivo; conditions: 160 gg/well, larvae on germinated wheat seeds, after 7 days
# Procedure: Diabrotica balteata—spray test
# Further test concentrations are prepared by dilution with emulsifier containing water.
# Soaked wheat seeds (Trificum aestivum) are placed in a multiple well plate filled with agar and some water and are incubated for 1 day to germinate (5 seeds per well). The germinated wheat seeds are sprayed with a test solution containing the desired concentration of the active ingredient. Afterwards each unit is infected with 10-20 larvae of the banded cucumber beetle (Diabrofica balteata).
# After 7 days efficacy in % is determined.
# Myzus persicae [3] = assay: Myzus persicae spray test; assay type: in vivo; conditions: in Brassica rapa, foliar
# Procedure: Myzus persicae—spray test
# (§2) To produce a suitable preparation of active compound, 1 part by weight of active compound is mixed with the stated amount of solvents and is diluted with water, containing an emulsifier concentration of 1000 ppm, to the desired concentration. Further test concentrations are prepared by dilution with emulsifier containing water.
# Chinese cabbage (Brassica pekinensis) leaf disks infected with all instars of the green peach aphid (Myzus persicae), are sprayed with a preparation of the active ingredient of the desired concentration.
# After 5-6 days mortality in % is determined. 100% means all aphids have been killed and 0% means none of the aphids have been killed.
# Nezara viridula = Nezara viridula spray test (solvent 52.5 parts acetone, 7 parts dimethylformamide); assay type: in vivo; conditions: in Hordeum vulgare, 96 h
# Procedure: Nezara viridula—spray test
# To produce a suitable preparation of active compound, 1 part by weight of active compound is mixed with the stated amount of solvent, and the concentrate is diluted with water, containing an emulsifier concentration of 1000 ppm, to the desired concentration Ammonium salt and/or penetration enhancer in a dosage of 1000 ppm are added to the desired concentration if necessary.
# Barley plants (Hordeum vulgare) infested with larvae of the southern green stink bug (Nezara viridula) are sprayed with a test solution containing the desired concentration of the active ingredient.
# After 4 days mortality in % is determined. 100% means all the stink bugs have been killed; 0% means none of the stink bugs have been killed.
# Nilaparvata lugens [4] = assay: Nilaparvata lugens spray test (solvent 52.5 parts acetone, 7 parts dimethylformamide); assay type: in vivo; conditions: in Oryza sativa, 96 h
# Procedure: (§3) Nilaparvata Wens—spray test
# To produce a suitable preparation of active compound, 1 part by weight of active compound is mixed with the stated amount of solvents and is diluted with water, containing an emulsifier concentration of 1000 ppm, to the desired concentration. Further test concentrations are prepared by dilution with emulsifier containing water Ammonium salt and/or penetration enhancer in a dosage of 1000 ppm are added to the desired concentration if necessary.
# Rice plants (Oryza sativa) are treated by being sprayed with the desired concentration of the active compound and are infested with larvae of the brown planthopper (Nilaparvata lugens).
# (§4) After 4 days mortality in % is determined. 100% means all planthoppers have been killed and 0% means none of the planthoppers have been killed.
# LogP-Value (HCOOH) = assay type: physicochemical; conditions: for chromatographic logP: HCOOH (formic acid)
# Myzus persicae [5] = assay: Myzus persicae oral test; assay type: in vivo; conditions: 120 h
# Procedure: To produce a suitable preparation of active compound, 1 part by weight of active compound is mixed with the stated amount of solvent, and the concentrate is diluted with water to the desired concentration.
# 50 μl compound solution is filled in microtiter plates and 150 μl IPL41 insect medium (33% +15% sugar) is added to obtain a total volume of […] per well. Afterwards the plates are sealed with parafilm through which a mixed population of the green peach aphid (Myzus persicae) can suck on the compound preparation.
# After 5 days mortality in % is determined. 100% means all aphids have been killed and 0% means none of the aphids have been killed.
# Phaedon cochleariae = Phaedon cochleariae spray test; assay type: in vivo; conditions: foliar, 168 h, larvae on Chinese cabbage leaf disks, after 7 days
# Procedure: Phaedon cochleariae—spray test
# as §2
# Chinese cabbage (Brassica pekinensis) leaf disks are sprayed with a preparation of the active ingredient of the desired concentration. Once dry, the leaf disks are infested with mustard beetle larvae (Phaedon cochleariae).
# After 7 days mortality in % is determined. 100% means all beetle larvae have been killed and 0% means none of the beetle larvae have been killed.
# Nilaparvata lugens [6] = assay: Nilaparvata lugens spray test (solvent 78.0 parts acetone, 1.5 parts dimethylformamide); assay type: in vivo; conditions: in Oryza sativa, 96 h
# Procedure: as §3, §2
# Rice plants (Oryza sativa) are sprayed with a preparation of the active ingredient of the desired concentration and the plants are infested with the brown planthopper (Nilaparvata lugens).
# as §4
# [7] = 100 ppm, 1st instar larvae, after 2 days, read-out: mortality
smiles,measurement,setting,value
"O=C(/C=C1\NCCN1Cc1cnc(Cl)c(F)c1)C(F)(F)F [Example I-2, 3-[1-[(6-Chloro-5-fluoro-3-pyridinyl)methyl]-2-imidazolidinylidene]-1,1,1-trifluoro-2-propanone]",efficacy (fleas dead or moribund),Ctenocephalides felis [1],100%
same,mortality at 100 ppm,Ctenocephalides felis [2],100%
same,mortality at 100 ppm,Lucilia cuprina; [7],100%
same,mortality at 20 ppm,Musca domestica,100%
same,efficacy (seedlings grown up),Diabrotica balteata,100%
same,mortality at 100 g/ha,Myzus persicae [3],100%
same,mortality at 500 g/ha,Nezara viridula,90%
same,mortality at 500 g/ha,Nilaparvata lugens [4],100%
same,chromatographic logP,LogP-Value (HCOOH),2.19
"Fc1cc(CN2CCN/C2=C\C(=S)C(F)(F)F)cnc1Cl [Example I-4, 3-[1-[(6-Chloro-5-fluoro-3-pyridinyl)methyl]-2-imidazolidinylidene]-1,1,1-trifluoro-2-propanthione]",efficacy (fleas dead or moribund),Ctenocephalides felis [1],100%
same,mortality at 100 ppm,Ctenocephalides felis [2],95%
same,mortality at 100 ppm,Lucilia cuprina; [7],100%
same,efficacy (seedlings grown up),Diabrotica balteata,100%
same,mortality at 4 ppm,Myzus persicae [5],100%
same,mortality at 500 g/ha,Phaedon cochleariae,83%
same,mortality at 500 g/ha,Nilaparvata lugens [6],100%
same,LogP-Value (HCOOH),LogP-Value (HCOOH),"2,61"
same,chromatographic logP,LogP-Value (HCOOH),2.59
O=C(/C=C1\SCCN1Cc1cnc(Cl)c(F)c1)C(F)(F)F [Example I-1],efficacy (fleas dead or moribund),Ctenocephalides felis [1],100%
same,mortality at 100 ppm,Lucilia cuprina,100%
same,mortality at 20 ppm,Musca domestica,90%
same,efficacy (seedlings grown up),Diabrotica balteata,100%
same,mortality at 100 g/ha,Myzus persicae [3],100%
same,mortality at 500 g/ha,Nezara viridula,100%
same,mortality at 500 g/ha,Nilaparvata lugens [4],100%
same,LogP-Value (HCOOH),LogP-Value (HCOOH),"2,48"
same,chromatographic logP,LogP-Value (HCOOH),2.47
"Fc1cc(CN2CCS/C2=C\C(=S)C(F)(F)F)cnc1Cl [Example I-3, 3-[3-[(6-Chloro-5-fluoro-3-pyridinyl)methyl]-2-thiazolidinylidene]-1,1,1-trifluoro-2-propanthione]",mortality at 100 ppm,Lucilia cuprina,100%
same,efficacy (seedlings grown up),Diabrotica balteata,100%
same,mortality at 4 ppm,Myzus persicae [5],100%
same,mortality at 20 ppm,Myzus persicae [5],100%
same,mortality at 500 g/ha,Nilaparvata lugens [6],100%
same,chromatographic logP,LogP-Value (HCOOH),1.2

# — patent US20190150445A1, “SUBSTITUTED HALOGEN(THIO)ACYL COMPOUNDS” (priority 2016, published 2019)
